Source: patent US6153740A, “cDNA encoding nucleoside transporter” (University of Alberta, priority 1997, dated 2000)
Entries after “also recorded” stand apart in the source; their conditions may differ. Like-named read-outs stand apart in the source and are kept apart here.

Key:
[1] = biological target: T1, CNT1 (Rattus norvegicus, UniProt Q62674); assay: inhibition of CNT1-mediated nucleoside (uridine, AZT, ddC) transport in Xenopus oocytes; format: cell-based; conditions: for effect on expressed uridine fluxes/transport: inhibitor 1 mM; for selective inhibition of uridine and thymidine fluxes (rCNT1): adenosine, cytidine, uridine>>guanosine, inosine
T1 sequence (Q62674 1-648): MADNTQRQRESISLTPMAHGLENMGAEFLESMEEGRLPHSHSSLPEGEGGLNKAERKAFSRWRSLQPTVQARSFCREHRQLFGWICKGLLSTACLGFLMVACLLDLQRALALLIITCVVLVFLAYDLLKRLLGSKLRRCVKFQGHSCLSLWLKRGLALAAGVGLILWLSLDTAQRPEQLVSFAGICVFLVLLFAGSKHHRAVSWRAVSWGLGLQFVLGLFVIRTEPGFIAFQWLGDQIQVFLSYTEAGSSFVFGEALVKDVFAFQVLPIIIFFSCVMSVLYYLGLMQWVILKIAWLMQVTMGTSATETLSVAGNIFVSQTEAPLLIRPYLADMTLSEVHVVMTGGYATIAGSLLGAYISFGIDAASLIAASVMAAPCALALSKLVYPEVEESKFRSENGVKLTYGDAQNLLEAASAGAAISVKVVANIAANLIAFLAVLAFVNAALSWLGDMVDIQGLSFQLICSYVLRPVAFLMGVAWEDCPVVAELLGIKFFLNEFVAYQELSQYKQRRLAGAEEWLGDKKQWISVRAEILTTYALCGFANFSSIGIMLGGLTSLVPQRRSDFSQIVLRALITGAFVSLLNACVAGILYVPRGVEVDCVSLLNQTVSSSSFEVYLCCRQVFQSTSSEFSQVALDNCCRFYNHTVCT
Description: (§1) Oocytes were injected with water or RNA transcribed in vitro from the nucleoside transporter cDNA (pQQH1). […] For panels c and d, the permeant concentration was 10 μM and competing nonradioactive nucleosides were present at a concentration of 1 mM.
(§2) Remaining template was removed by digestion with RQ1 DNase. Oocytes were treated with collagenase to remove follicular layers (Huang et al, 1993) and injected with 10 ng of pQQH1 cRNA or water. […] At the end of the incubation, extracellular label was removed by six rapid ice-cold washes in the appropriate transport buffer. Individual oocytes were dissolved in 5% SDS for quantitation of oocyte-associated ^3 H by liquid scintillation counting (LS 6000 IC, Beckman).

[2] = biological target: T2, hCNT1a (Homo sapiens, UniProt O00337); assay: inhibition of hCNT1a-mediated influx of [3H]uridine in Xenopus oocytes; conditions: uridine 10 μM; for inhibition of uridine fluxes, hCNT1a: competitor 1 mM (FIG. 12A), guanosine also in FIG. 13
T2 sequence (O00337 with tags, fused parts or gaps E34G/INS140V): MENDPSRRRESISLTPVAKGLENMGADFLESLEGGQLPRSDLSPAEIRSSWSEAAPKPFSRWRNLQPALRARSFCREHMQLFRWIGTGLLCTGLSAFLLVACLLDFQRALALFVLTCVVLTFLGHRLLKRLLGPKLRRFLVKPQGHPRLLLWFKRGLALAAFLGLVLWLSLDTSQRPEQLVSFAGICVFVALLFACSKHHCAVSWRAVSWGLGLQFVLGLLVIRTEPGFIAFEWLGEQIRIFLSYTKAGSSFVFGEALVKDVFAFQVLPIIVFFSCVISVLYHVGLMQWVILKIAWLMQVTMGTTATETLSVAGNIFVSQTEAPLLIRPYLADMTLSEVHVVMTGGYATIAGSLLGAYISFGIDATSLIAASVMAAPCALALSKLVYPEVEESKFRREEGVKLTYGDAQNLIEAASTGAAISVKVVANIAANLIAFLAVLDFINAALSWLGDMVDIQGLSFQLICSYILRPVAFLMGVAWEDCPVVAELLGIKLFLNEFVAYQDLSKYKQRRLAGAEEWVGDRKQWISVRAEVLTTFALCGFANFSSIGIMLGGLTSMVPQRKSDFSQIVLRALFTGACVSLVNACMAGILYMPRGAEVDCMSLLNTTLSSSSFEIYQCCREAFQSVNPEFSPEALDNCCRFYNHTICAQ
Description: H2 O, water-injected oocytes. Fluxes were not corrected for the contribution of endogenous transport activity.
(§3) Defolliculated oocytes (Huang et al. 1993) were injected with either 10 nl of water containing 10 ng RNA transcript or 10 nl of water alone. Nucleoside uptake was measured after 3 d and was traced with the respective [^3 H] or [^14 C]nucleoside (Moravek Biochemicals)(5 μC 3H/ml, 1 μC 14C/ml). […] The transport buffer for adenosine influx experiments contained 1 μM deoxycoformycin to inhibit adenosine deaminase activity. Results are presented as means ±SEM for 10-12 individual oocytes. Kinetic constants were determined by non-linear regression analysis (ENZFITTER, Elsevier-Biosoft). Each experiment was performed at least twice on different batches of oocytes.

[3] = biological target: T3, hCNT1b (Homo sapiens, UniProt O00337); assay: inhibition of hCNT1b-mediated influx of [3H]uridine in Xenopus oocytes; format: cell-based; conditions: uridine 10 μM; for inhibition of uridine fluxes, hCNT1b: competitor 1 mM (FIG. 12B)
T3 sequence (O00337 2-649 V189I/N409S/D521N): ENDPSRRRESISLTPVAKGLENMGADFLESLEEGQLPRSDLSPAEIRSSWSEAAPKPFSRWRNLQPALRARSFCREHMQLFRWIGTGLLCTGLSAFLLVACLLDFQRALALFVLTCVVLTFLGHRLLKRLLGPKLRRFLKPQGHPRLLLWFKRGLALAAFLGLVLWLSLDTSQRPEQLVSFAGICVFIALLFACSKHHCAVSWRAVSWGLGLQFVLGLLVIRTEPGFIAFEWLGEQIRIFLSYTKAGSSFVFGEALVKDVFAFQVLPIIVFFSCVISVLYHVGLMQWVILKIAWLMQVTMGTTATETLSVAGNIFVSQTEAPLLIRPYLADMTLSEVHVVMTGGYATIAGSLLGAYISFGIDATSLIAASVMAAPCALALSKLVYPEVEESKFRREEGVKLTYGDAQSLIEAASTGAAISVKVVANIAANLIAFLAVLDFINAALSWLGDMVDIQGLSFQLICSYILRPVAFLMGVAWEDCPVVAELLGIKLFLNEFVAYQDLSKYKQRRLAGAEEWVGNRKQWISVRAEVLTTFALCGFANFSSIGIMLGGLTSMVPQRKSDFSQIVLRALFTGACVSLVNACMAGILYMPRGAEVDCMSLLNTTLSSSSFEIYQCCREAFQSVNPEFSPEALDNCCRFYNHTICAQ
Text: H2 O, water-injected oocytes.

[4] = tested on: human erythrocyte es transporter; conditions: cited from earlier work
[5] = biological target: T1, CNT1; assay: uptake/influx of radiolabelled nucleosides in Xenopus oocytes injected with pQQH1 (rat CNT1) cRNA; format: cell-based; conditions: for Vmax: rat CNT1, permeant = labelled substance
Description: as §1
Oocytes injected with water or in vitro transcribed RNA from pQQH1 were incubated with radiolabeled permanent (10 μM) for 30 min (open columns) or 1 h (hatched columns) at 20° C. Each value represents the mean ±S. E. of 8-10 ooctyes.
as §2

[6] = tested on: human erythrocytes; conditions: cited from earlier work
[7] = biological target: T2, hCNT1a; assay: influx of radiolabelled nucleosides in Xenopus oocytes injected with hCNT1a RNA transcript
Description: Oocytes were injected with either water alone or water containing hCNT1a RNA transcript.
Oocytes were injected with either water alone (.tangle-solidup.) or water containing hCNT1a RNA transcript (.smallcircle.,.circle-solid.).
Adenosine, guanosine and AZT (10 μM) fluxes were compared in the same batch of oocytes injected either with water (open columns) or with RNA transcript for hCNT1a or rCNT1 (hatched and solid columns, respectively).
as §3

[8] = biological target: T3, hCNT1b; assay: influx of radiolabelled nucleosides in Xenopus oocytes injected with hCNT1b RNA transcript; format: cell-based
Description: as §3

[9] = tested on: rat jejunum; assay: uptake of [3H]AZT by rat jejunum in vivo
[10] = substrate: O=c1ccn([C@@H]2O[C@H](CO)[C@@H](O)[C@H]2O)c(=O)[nH]1; assay: cells, lysate or membranes; conditions: other: hCNT1a; 20.0 °C
[11] = 10 μM, same experiment as adenosine (FIG. 14A)

In the case of `O=c1ccn([C@@H]2O[C@H](COP(=O)(O)OP(=O)(O)O)[C@@H](O)[C@H]2O)c(=O)[nH]1` [UDP], the “effect on expressed uridine fluxes/transport” value [1] is reported as “no effect”.

For `O=c1ccn([C@@H]2O[C@H](COP(=O)(O)O)[C@@H](O)[C@H]2O)c(=O)[nH]1` [UMP], the “effect on expressed uridine fluxes/transport” value [1] was “no effect”.

For `O=c1ccn([C@@H]2O[C@H](COP(=O)(O)OP(=O)(O)OP(=O)(O)O)[C@@H](O)[C@H]2O)c(=O)[nH]1` [UTP], the “effect on expressed uridine fluxes/transport” value [1] was “no effect”.

In the case of `O=c1cc[nH]c(=O)[nH]1` [Uracil], the “effect on expressed uridine fluxes/transport” value [1] is reported as “no effect”.

With `Nc1ccn([C@@H]2O[C@H](CO)[C@@H](O)[C@H]2O)c(=O)n1` [cytidine] the “selective inhibition of uridine and thymidine fluxes (rCNT1)” value (from here on “selective inhibition … (rCNT1)”) [1] was “selective inhibition”, the “inhibition of uridine fluxes, hCNT1a” value [2] was “inhibited” and the “inhibition of uridine fluxes, hCNT1b” value [3] was “inhibited”.

For `Nc1ccn([C@H]2CC[C@@H](CO)O2)c(=O)n1` [ddC, 2',3'-dideoxycytidine], the IC50 [1] is given as < 1000 µM, the “inhibition of hCNT1a-mediated influx of uridine” value ([2]; analog 5 mM (FIG. 12A)) is given as “inhibited” and the Km ([4]; Domin et al, 1993) is given as 23000 µM. The “transport by equilibrative nucleoside transporters” value [4] was “low affinity es substrate”, the CNT1-mediated uptake/transport ([5]; 10 μM permeant) was “large increases” and the “Na+ dependence of initial rate of expressed uptake” value ([5]; 10 μM, 10-min flux) was 93%. The Vmax [5] was 20 pmol/oocyte.min^-1, the “inhibition of hCNT1b-mediated influx of uridine” value ([3]; analog 5 mM (FIG. 12B)) was “inhibited” and the “rate of entry into human erythrocytes relative to those of thymidine and cytidine” value [6] was < 2%.

In the case of `Nc1nc2c(ncn2[C@H]2CC[C@@H](CO)O2)c(=O)[nH]1` [ddG, 2',3'-dideoxyguanosine], the “effect on expressed uridine fluxes/transport” value [1] is reported as “no effect”.

In the case of `OC[C@@H]1CC[C@H](n2cnc3c(O)ncnc32)O1` [ddl, 2',3'-dideoxyinosine], the “effect on expressed uridine fluxes/transport” value [1] is reported as “no effect”.

For `Nc1nc2c(ncn2[C@@H]2O[C@H](CO)[C@@H](O)[C@H]2O)c(=O)[nH]1` [guanosine], the “selective inhibition … (rCNT1)” value [1] was “>>guanosine, inosine”, the “permeant quality, hCNT1” value [7] was “poor CNT1 permeant; also recorded: poor hCNT1 permeants” and the “mediated flux, hCNT1a” value ([7]; 10 μM permeant (FIG. 14)) was 0.06±0.01 pmol/oocyte.10 min^-1. The “inhibition of uridine fluxes, hCNT1a” value [2] was “not and not inhibited”, the “fluxes, hCNT1b (results not shown)” value [8] was “very low guanosine fluxes” and the “mediated flux, rCNT1” value ([5]; 10 μM permeant (FIG. 14)) was 0.05±0.01 pmol/oocyte.10 min^-1. The “inhibition of uridine fluxes, hCNT1b” value [3] was “not”.

For `OC[C@H]1O[C@@H](n2cnc3c(O)ncnc32)[C@H](O)[C@@H]1O` [inosine], the “selective inhibition … (rCNT1)” value [1] was “>>guanosine, inosine”, the “inhibition of uridine fluxes, hCNT1a” value [2] was “not” and the “inhibition of uridine fluxes, hCNT1b” value [3] was “not”.

For `Cc1cn([C@H]2C[C@H](O)[C@@H](CO)O2)c(=O)[nH]c1=O` [thymidine], the “selective inhibition … (rCNT1)” value [1] was “selective inhibition”, the “inhibition of uridine fluxes, hCNT1a” value [2] was “inhibited” and the “inhibition of uridine fluxes, hCNT1b” value [3] was “inhibited”.

For `O=c1ccn([C@@H]2O[C@H](CO)[C@@H](O)[C@H]2O)c(=O)[nH]1` [uridine], the inhibition at 1000 µM ([1]; read-out: inhibition of expressed AZT uptake) was > 95%, the inhibition at 1000 µM ([1]; read-out: inhibition of expressed ddC uptake) was > 95% and the “uridine influx in Na+-medium” value ([7]; 10 μM, 100 mM NaCl (FIG. 9)) was 4.88±0.70 pmol/oocyte.min^-1. The “uridine influx in choline-medium” value ([7]; 10 μM, 100 mM choline chloride (FIG. 9)) was 0.18±0.01 pmol/oocyte.min^-1, the “uridine flux, hCNT1a” value [7, 11] was 3.68±0.46 pmol/oocyte.min^-1 and the “Na+-independent uridine influx” value ([7]; 50 μM uridine (FIG. 11)) was 0.81±0.14 pmol/oocyte.min^-1. The “Vmax, influx of uridine” value ([7]; hCNT1a) was 26±1 pmol/oocyte.min^-1, the “inhibition of uridine fluxes, hCNT1a” value [2] was “inhibited” and the “Vmax, influx of uridine” value ([8]; hCNT1b) was 22±2 pmol/oocyte.min^-1. The Km ([8]; read-out: apparent Km, influx of uridine, hCNT1b) was 37 ± 10 µM, the “inhibition of [3H]AZT uptake by rat jejunum in vivo” value [9] was “inhibited by uridine” and the “intracellular concentration higher than that in the extracellular medium” value ([5]; 10 μM uridine, 30 min) was “approximately 6 -fold”. For the same molecule, the “cellular content of uridine after 30 min” value ([5]; 10 μM, 20° C., 30 min, pQQH1 cRNA-injected) was 64 pmol/oocyte, the “uridine flux, rCNT1” value [5, 11] was 5.60±0.38 pmol/oocyte.min^-1 and the “effect of substitution of Cl- by gluconate on flux” value ([5]; 100 mM NaCl or sodium gluconate, 10 mM HEPES, pH 7.6) was “unaffected”. For the same molecule, the “Vmax (uridine transport)” value ([5]; rat CNT1) was 21 pmol/oocyte-min^-1, the Vmax [5] was 21 pmol/oocyte.min^-1 and the “inhibition of uridine fluxes, hCNT1b” value [3] was “inhibited”.

B1: hCNT1a (Homo sapiens) (protein)
chain: MENDPSRRRESISLTPVAKGLENMGADFLESLEGGQLPRSDLSPAEIRSSWSEAAPKPFSRWRNLQPALRARSFCREHMQLFRWIGTGLLCTGLSAFLLVACLLDFQRALALFVLTCVVLTFLGHRLLKRLLGPKLRRFLVKPQGHPRLLLWFKRGLALAAFLGLVLWLSLDTSQRPEQLVSFAGICVFVALLFACSKHHCAVSWRAVSWGLGLQFVLGLLVIRTEPGFIAFEWLGEQIRIFLSYTKAGSSFVFGEALVKDVFAFQVLPIIVFFSCVISVLYHVGLMQWVILKIAWLMQVTMGTTATETLSVAGNIFVSQTEAPLLIRPYLADMTLSEVHVVMTGGYATIAGSLLGAYISFGIDATSLIAASVMAAPCALALSKLVYPEVEESKFRREEGVKLTYGDAQNLIEAASTGAAISVKVVANIAANLIAFLAVLDFINAALSWLGDMVDIQGLSFQLICSYILRPVAFLMGVAWEDCPVVAELLGIKLFLNEFVAYQDLSKYKQRRLAGAEEWVGDRKQWISVRAEVLTTFALCGFANFSSIGIMLGGLTSMVPQRKSDFSQIVLRALFTGACVSLVNACMAGILYMPRGAEVDCMSLLNTTLSSSSFEIYQCCREAFQSVNPEFSPEALDNCCRFYNHTICAQ
Molecule B1 has a Km [10] of 45 ± 8 µM.
